{"source": "patent US20210254272A1", "about": "“TEXTILES HAVING ANTIMICROBIAL PROPERTIES” (Livinguard AG, priority 2015, published 2021)", "test_system": "E. coli (ATCC 25922)", "experiment": "AATCC Test Method 100-2012 antibacterial activity of the treated textile, after 25 washes and 12 abrasion cycles, contact time 60 minutes", "format": "cell-based", "description": "The antibacterial activity of the textile was tested in accordance with AATCC Test Method 100-2012. Prior to the test, the fabric was cut into coupons of 2×4 inches and washed separately 25 times, and exposed to 12 abrasion cycles, as per US EPA protocol 90072PA4 (described further below). The tests were made against E. coli (ATCC 25922). Contact time was 60 minutes, after inoculating with 10^8 CFU per coupon.", "data": [{"substance": "polyglucosamine [chitosan]", "values": [{"measurement": "Log reduction of antimicrobial performance of each active ingredient", "setting": "exhaust 80 ° C., solution dosage 1% o.w.f, process time 90 min", "result": 2.72, "unit": "Log"}, {"measurement": "Log reduction of antimicrobial performance", "setting": "pure cotton fabric, exhaust 80° C., 60 min, dosage 0.1% o.w.f", "result": 0.63, "unit": "Log"}, {"measurement": "Log reduction of antimicrobial performance", "setting": "pure cotton fabric, exhaust 80° C., 60 min, dosage 0.2% o.w.f", "result": 1.37, "unit": "Log"}, {"measurement": "Log reduction of antimicrobial performance", "setting": "pure cotton fabric, exhaust 80° C., 60 min, dosage 0.5% o.w.f", "result": 1.91, "unit": "Log"}, {"measurement": "Log reduction of antimicrobial performance", "setting": "pure cotton fabric, exhaust 80° C., 60 min, dosage 0.8% o.w.f", "result": 2.21, "unit": "Log"}, {"measurement": "Log reduction of antimicrobial performance", "setting": "pure cotton fabric, exhaust 80° C., 60 min, dosage 1.0% o.w.f", "result": 2.71, "unit": "Log"}, {"measurement": "Log reduction of antimicrobial performance", "setting": "pure cotton, exhaust 80° C., 1% o.w.f, 60 min, curing 180° C., curing dwell time 0.5 min", "result": 0.4, "unit": "Log"}, {"measurement": "Log reduction of antimicrobial performance", "setting": "pure cotton, exhaust 80° C., 1% o.w.f, 60 min, curing 180° C., curing dwell time 1.0 min", "result": 0.8, "unit": "Log"}, {"measurement": "Log reduction of antimicrobial performance", "setting": "pure cotton, exhaust 80° C., 1% o.w.f, 60 min, curing 180° C., curing dwell time 1.5 min", "result": 1.6, "unit": "Log"}, {"measurement": "Log reduction of antimicrobial performance", "setting": "pure cotton, exhaust 80° C., 1% o.w.f, 60 min, curing 180° C., curing dwell time 2.0 min", "result": 2.7, "unit": "Log"}, {"measurement": "Log reduction of antimicrobial performance", "setting": "pure cotton, exhaust 80° C., 1% o.w.f, 60 min, curing 180° C., curing dwell time 2.5 min", "result": 2.3, "unit": "Log"}, {"measurement": "Log reduction of antimicrobial performance", "setting": "pure cotton, exhaust 80° C., 1% o.w.f, 60 min, curing 180° C., curing dwell time 3.0 min", "result": 1.4, "unit": "Log"}, {"measurement": "Log reduction of antimicrobial performance", "setting": "solution dosage 0.10% o.w.f, exhaust temperature 40° C., process time 60 min", "result": 0, "unit": "Log"}, {"measurement": "Log reduction of antimicrobial performance", "setting": "solution dosage 0.10% o.w.f, exhaust temperature 60° C., process time 60 min", "result": 0, "unit": "Log"}, {"measurement": "Log reduction of antimicrobial performance", "setting": "solution dosage 0.10% o.w.f, exhaust temperature 65° C., process time 60 min", "result": 0, "unit": "Log"}, {"measurement": "Log reduction of antimicrobial performance", "setting": "solution dosage 0.10% o.w.f, exhaust temperature 70° C., process time 60 min", "result": 0, "unit": "Log"}, {"measurement": "Log reduction of antimicrobial performance", "setting": "solution dosage 0.10% o.w.f, exhaust temperature 75° C., process time 60 min", "result": 0.23, "unit": "Log"}, {"measurement": "Log reduction of antimicrobial performance", "setting": "solution dosage 0.10% o.w.f, exhaust temperature 80° C., process time 60 min", "result": 0.57, "unit": "Log"}, {"measurement": "Log reduction of antimicrobial performance", "setting": "solution dosage 0.10% o.w.f, exhaust temperature 85° C., process time 60 min", "result": 0.67, "unit": "Log"}, {"measurement": "Log reduction of antimicrobial performance", "setting": "solution dosage 0.10% o.w.f, exhaust temperature 90° C., process time 60 min", "result": 0.67, "unit": "Log"}, {"measurement": "Log reduction of antimicrobial performance", "setting": "solution dosage 0.10% o.w.f, exhaust temperature 95° C., process time 60 min", "result": 0.67, "unit": "Log"}, {"measurement": "Log reduction of antimicrobial performance", "setting": "solution dosage 0.20% o.w.f, exhaust temperature 40° C., process time 60 min", "result": 0, "unit": "Log"}, {"measurement": "Log reduction of antimicrobial performance", "setting": "solution dosage 0.20% o.w.f, exhaust temperature 60° C., process time 60 min", "result": 0, "unit": "Log"}, {"measurement": "Log reduction of antimicrobial performance", "setting": "solution dosage 0.20% o.w.f, exhaust temperature 65° C., process time 60 min", "result": 0, "unit": "Log"}, {"measurement": "Log reduction of antimicrobial performance", "setting": "solution dosage 0.20% o.w.f, exhaust temperature 70° C., process time 60 min", "result": 0, "unit": "Log"}, {"measurement": "Log reduction of antimicrobial performance", "setting": "solution dosage 0.20% o.w.f, exhaust temperature 75° C., process time 60 min", "result": 0.67, "unit": "Log"}, {"measurement": "Log reduction of antimicrobial performance", "setting": "solution dosage 0.20% o.w.f, exhaust temperature 80° C., process time 60 min", "result": 1.34, "unit": "Log"}, {"measurement": "Log reduction of antimicrobial performance", "setting": "solution dosage 0.20% o.w.f, exhaust temperature 85° C., process time 60 min", "result": 1.43, "unit": "Log"}, {"measurement": "Log reduction of antimicrobial performance", "setting": "solution dosage 0.20% o.w.f, exhaust temperature 90° C., process time 60 min", "result": 1.45, "unit": "Log"}, {"measurement": "Log reduction of antimicrobial performance", "setting": "solution dosage 0.20% o.w.f, exhaust temperature 95° C., process time 60 min", "result": 1.45, "unit": "Log"}, {"measurement": "Log reduction of antimicrobial performance", "setting": "solution dosage 0.50% o.w.f, exhaust temperature 40° C., process time 60 min", "result": 0, "unit": "Log"}, {"measurement": "Log reduction of antimicrobial performance", "setting": "solution dosage 0.50% o.w.f, exhaust temperature 60° C., process time 60 min", "result": 0.09, "unit": "Log"}, {"measurement": "Log reduction of antimicrobial performance", "setting": "solution dosage 0.50% o.w.f, exhaust temperature 65° C., process time 60 min", "result": 0.09, "unit": "Log"}, {"measurement": "Log reduction of antimicrobial performance", "setting": "solution dosage 0.50% o.w.f, exhaust temperature 70° C., process time 60 min", "result": 0.15, "unit": "Log"}, {"measurement": "Log reduction of antimicrobial performance", "setting": "solution dosage 0.50% o.w.f, exhaust temperature 75° C., process time 60 min", "result": 1.12, "unit": "Log"}, {"measurement": "Log reduction of antimicrobial performance", "setting": "solution dosage 0.50% o.w.f, exhaust temperature 80° C., process time 60 min", "result": 1.89, "unit": "Log"}, {"measurement": "Log reduction of antimicrobial performance", "setting": "solution dosage 0.50% o.w.f, exhaust temperature 85° C., process time 60 min", "result": 1.93, "unit": "Log"}, {"measurement": "Log reduction of antimicrobial performance", "setting": "solution dosage 0.50% o.w.f, exhaust temperature 90° C., process time 60 min", "result": 1.94, "unit": "Log"}, {"measurement": "Log reduction of antimicrobial performance", "setting": "solution dosage 0.50% o.w.f, exhaust temperature 95° C., process time 60 min", "result": 1.94, "unit": "Log"}, {"measurement": "Log reduction of antimicrobial performance", "setting": "solution dosage 0.80% o.w.f, exhaust temperature 40° C., process time 60 min", "result": 0, "unit": "Log"}, {"measurement": "Log reduction of antimicrobial performance", "setting": "solution dosage 0.80% o.w.f, exhaust temperature 60° C., process time 60 min", "result": 0.15, "unit": "Log"}, {"measurement": "Log reduction of antimicrobial performance", "setting": "solution dosage 0.80% o.w.f, exhaust temperature 65° C., process time 60 min", "result": 0.15, "unit": "Log"}, {"measurement": "Log reduction of antimicrobial performance", "setting": "solution dosage 0.80% o.w.f, exhaust temperature 70° C., process time 60 min", "result": 0.21, "unit": "Log"}, {"measurement": "Log reduction of antimicrobial performance", "setting": "solution dosage 0.80% o.w.f, exhaust temperature 75° C., process time 60 min", "result": 1.23, "unit": "Log"}, {"measurement": "Log reduction of antimicrobial performance", "setting": "solution dosage 0.80% o.w.f, exhaust temperature 80° C., process time 60 min", "result": 2.11, "unit": "Log"}, {"measurement": "Log reduction of antimicrobial performance", "setting": "solution dosage 0.80% o.w.f, exhaust temperature 85° C., process time 60 min", "result": 2.34, "unit": "Log"}, {"measurement": "Log reduction of antimicrobial performance", "setting": "solution dosage 0.80% o.w.f, exhaust temperature 90° C., process time 60 min", "result": 2.37, "unit": "Log"}, {"measurement": "Log reduction of antimicrobial performance", "setting": "solution dosage 0.80% o.w.f, exhaust temperature 95° C., process time 60 min", "result": 2.37, "unit": "Log"}, {"measurement": "Log reduction of antimicrobial performance", "setting": "solution dosage 1.00% o.w.f, exhaust temperature 40° C., process time 60 min", "result": 0, "unit": "Log"}, {"measurement": "Log reduction of antimicrobial performance", "setting": "solution dosage 1.00% o.w.f, exhaust temperature 60° C., process time 60 min", "result": 0.21, "unit": "Log"}, {"measurement": "Log reduction of antimicrobial performance", "setting": "solution dosage 1.00% o.w.f, exhaust temperature 65° C., process time 60 min", "result": 0.22, "unit": "Log"}, {"measurement": "Log reduction of antimicrobial performance", "setting": "solution dosage 1.00% o.w.f, exhaust temperature 70° C., process time 60 min", "result": 0.32, "unit": "Log"}, {"measurement": "Log reduction of antimicrobial performance", "setting": "solution dosage 1.00% o.w.f, exhaust temperature 75° C., process time 60 min", "result": 1.28, "unit": "Log"}, {"measurement": "Log reduction of antimicrobial performance", "setting": "solution dosage 1.00% o.w.f, exhaust temperature 80° C., process time 60 min", "result": 2.67, "unit": "Log"}, {"measurement": "Log reduction of antimicrobial performance", "setting": "solution dosage 1.00% o.w.f, exhaust temperature 85° C., process time 60 min", "result": 2.76, "unit": "Log"}, {"measurement": "Log reduction of antimicrobial performance", "setting": "solution dosage 1.00% o.w.f, exhaust temperature 90° C., process time 60 min", "result": 2.78, "unit": "Log"}, {"measurement": "Log reduction of antimicrobial performance", "setting": "solution dosage 1.00% o.w.f, exhaust temperature 95° C., process time 60 min", "result": 2.78, "unit": "Log"}]}]}
